# Source: PubChem BioAssay AID330 (DTP/NCI, 2004)
# Values joined by “and” are separate entries in the source; they are usually repeats but may differ in a detail not shown here. Equal entries are not always repeated. Inconclusive results and toxic doses are left out.
# Test system: P388 leukemia ip, CD2F1 mice, survival T/C
# Assay: NCI In Vivo Anticancer Drug Screen. Data for tumor model P388 Leukemia (intraperitoneal) in CD2F1 (CDF1) mice
# Settings: endpoint: median survival time, higher = longer survival
# Procedure, shortened: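 Mice carrying the transplanted tumor received test compound or vehicle. Survival was recorded in each group, and the value is the treated-group measurement divided by that of the vehicle-treated control group.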
# [1] = dose: 100.0 mg/kg/injection, schedule: Q04DX003 (ip), vehicle: saline with Tween-80
# [2] = dose: 60.0 mg/kg/injection, schedule: Q01DX005 (ip), vehicle: saline with Tween-80
# [3] = dose: 120.0 mg/kg/injection, schedule: Q01DX005 (ip), vehicle: saline with Tween-80
# [4] = dose: 240.0 mg/kg/injection, schedule: Q01DX005 (ip), vehicle: saline with Tween-80
# [5] = dose: 50.0 mg/kg/injection, schedule: Q01DX009 (ip), vehicle: saline
# [6] = dose: 100.0 mg/kg/injection, schedule: Q01DX009 (ip), vehicle: saline
# [7] = dose: 200.0 mg/kg/injection, schedule: Q01DX009 (ip), vehicle: saline
# [8] = dose: 25.0 mg/kg/injection, schedule: Q01DX009 (ip), vehicle: Klucel (hydroxypropylcellulose) (HPC)
# [9] = dose: 50.0 mg/kg/injection, schedule: Q01DX009 (ip), vehicle: Klucel (hydroxypropylcellulose) (HPC)
# [10] = dose: 25.0 mg/kg/injection, schedule: Q01DX009 (ip), vehicle: saline
# [11] = dose: 12.5 mg/kg/injection, schedule: Q01DX009 (ip), vehicle: saline
compound,measurement,setting,value
CCCCS(=O)(=O)C(C)(Cl)C(=O)OCC (stereo not drawn),T/C,"dose: 25.0 mg/kg/injection, schedule: Q01DX001 (ip), vehicle: saline with Tween-80",100 % of control
same,T/C,"dose: 50.0 mg/kg/injection, schedule: Q01DX001 (ip), vehicle: saline with Tween-80",100 % of control
same,T/C,"dose: 100.0 mg/kg/injection, schedule: Q01DX001 (ip), vehicle: saline with Tween-80",106 % of control and 93 % of control
COc1cc(N(C)C)c(OC)cc1/C=C\c1ccnc2ccccc12,T/C,[1],111 % of control
O=C(Nc1ccc(Cl)cc1)NN1CCCCCC1,T/C,"dose: 25.0 mg/kg/injection, schedule: Q04DX002 (ip), vehicle: saline with Tween-80",103 % of control
same,T/C,"dose: 50.0 mg/kg/injection, schedule: Q04DX002 (ip), vehicle: saline with Tween-80",98 % of control
O=C(SCC(/C=N/Nc1ccc([N+](=O)[O-])cc1[N+](=O)[O-])c1ccccc1)c1ccccc1 (stereo not drawn),T/C,"dose: 100.0 mg/kg/injection, schedule: Q01DX001 (ip), vehicle: Klucel (hydroxypropylcellulose) (HPC)",92 % of control
same,T/C,"dose: 200.0 mg/kg/injection, schedule: Q01DX001 (ip), vehicle: Klucel (hydroxypropylcellulose) (HPC)",89 % of control
same,T/C,"dose: 400.0 mg/kg/injection, schedule: Q01DX001 (ip), vehicle: Klucel (hydroxypropylcellulose) (HPC)",92 % of control
CC1=C(C(=O)Nc2ccccc2C)C(c2ccco2)C(C(=O)Nc2ccccc2C)=C(C)N1,T/C,[2],96 % of control
same,T/C,[3],94 % of control
same,T/C,[4],97 % of control
COc1cc(C2C3=C(CC(C)(C)CC3=O)N(CC(=O)O)C3=C2C(=O)CC(C)(C)C3)ccc1O,T/C,[5],95 % of control
same,T/C,[6],102 % of control
same,T/C,[7],113 % of control
O=C(O)CNCCCNCC(=O)O,T/C,"dose: 50.0 mg/kg/injection, schedule: Q01DX005 (ip), vehicle: saline",94 % of control
same,T/C,"dose: 100.0 mg/kg/injection, schedule: Q01DX005 (ip), vehicle: saline",88 % of control
same,T/C,"dose: 200.0 mg/kg/injection, schedule: Q01DX005 (ip), vehicle: saline",99 % of control
O/N=C(/Cc1nc2cc(Cl)c(Cl)cc2nc1C/C(=N/O)c1ccncc1)c1ccncc1,T/C,[2],102 % of control
same,T/C,[3],100 % of control
same,T/C,[4],102 % of control
Cc1nc(N(C)C)oc(=O)c1Cc1ccccc1,T/C,[2],102 % of control
same,T/C,[3],100 % of control
same,T/C,[4],100 % of control
COc1cccc2c1C(=O)c1c(O)c3c(c(O)c1C2=O)C[C@@](O)(C(C)=O)C[C@@H]3OC(=O)CCN,T/C,"dose: 0.78 mg/kg/injection, schedule: Q01DX009 (ip), vehicle: water",112 % of control
same,T/C,"dose: 1.56 mg/kg/injection, schedule: Q01DX009 (ip), vehicle: water",110 % of control
same,T/C,"dose: 3.13 mg/kg/injection, schedule: Q01DX009 (ip), vehicle: water",118 % of control
same,T/C,"dose: 8.33 mg/kg/injection, schedule: Q01DX009 (ip), vehicle: water",123 % of control
same,T/C,"dose: 12.5 mg/kg/injection, schedule: Q01DX009 (ip), vehicle: water",120 % of control
same,T/C,"dose: 18.8 mg/kg/injection, schedule: Q01DX009 (ip), vehicle: water",101 % of control
same,T/C,"dose: 25.0 mg/kg/injection, schedule: Q01DX009 (ip), vehicle: water",118 % of control
N#Cc1cnc(N)c(C#N)c1,T/C,[8],104 % of control
same,T/C,[9],104 % of control
N#Cc1c(-c2ccccc2)c(-c2ccccc2)nn(CCC(=O)O)c1=O,T/C,"dose: 25.0 mg/kg/injection, schedule: Q04DX002 (ip), vehicle: distilled water + Tween-80",101 % of control
same,T/C,"dose: 50.0 mg/kg/injection, schedule: Q04DX002 (ip), vehicle: distilled water + Tween-80",102 % of control
same,T/C,"dose: 100.0 mg/kg/injection, schedule: Q04DX002 (ip), vehicle: distilled water + Tween-80",108 % of control
COC(=O)c1ccc(N=NN(C)C)cc1,T/C,[10],100 % of control and 97 % of control
same,T/C,"dose: 25.0 mg/kg/injection, schedule: Q01DX009 (ip), vehicle: suspension in saline",103 % of control
same,T/C,[5],113 % of control and 92 % of control
same,T/C,"dose: 50.0 mg/kg/injection, schedule: Q01DX009 (ip), vehicle: suspension in saline",91 % of control
same,T/C,[6],103 % of control and 94 % of control
same,T/C,[7],108 % of control
same,T/C,"dose: 200.0 mg/kg/injection, schedule: Q01DX009 (ip), vehicle: suspension in saline",101 % of control
CC(=O)Oc1ccc[nH]c1=S,T/C,[11],101 % of control and 103 % of control
same,T/C,[10],104 % of control and 106 % of control
same,T/C,[5],99 % of control and 102 % of control
same,T/C,"dose: 100.0 mg/kg/injection, schedule: Q01DX008 (ip), vehicle: saline",104 % of control and 106 % of control
same,T/C,[6],100 % of control and 104 % of control
same,T/C,"dose: 200.0 mg/kg/injection, schedule: Q01DX008 (ip), vehicle: saline",105 % of control and 110 % of control
same,T/C,[7],109 % of control and 113 % of control
same,T/C,"dose: 400.0 mg/kg/injection, schedule: Q01DX008 (ip), vehicle: saline",120 % of control
same,T/C,"dose: 400.0 mg/kg/injection, schedule: Q01DX009 (ip), vehicle: saline",96 % of control
COc1cccc2c1C(=O)c1c(O)c3c(c(O)c1C2=O)CC(O)(C(C)NCCCO)CC3OC1CC(N)C(O)C(C)O1 (stereo not drawn),T/C,"dose: 1.5 mg/kg/injection, schedule: Q01DX009 (ip), vehicle: water",111 % of control
same,T/C,"dose: 24.0 mg/kg/injection, schedule: Q01DX009 (ip), vehicle: water",168 % of control and 172 % of control
same,T/C,"dose: 48.0 mg/kg/injection, schedule: Q01DX009 (ip), vehicle: water",173 % of control
COc1ccc(NS(=O)(=O)c2ccc(NCc3c4ccccc4nc4ccccc34)cc2)nn1,T/C,"dose: 12.5 mg/kg/injection, schedule: Q04DX002 (ip), vehicle: Klucel (hydroxypropylcellulose) (HPC)",96 % of control
same,T/C,"dose: 25.0 mg/kg/injection, schedule: Q04DX002 (ip), vehicle: Klucel (hydroxypropylcellulose) (HPC)",99 % of control
same,T/C,"dose: 50.0 mg/kg/injection, schedule: Q04DX002 (ip), vehicle: Klucel (hydroxypropylcellulose) (HPC)",89 % of control
same,T/C,"dose: 100.0 mg/kg/injection, schedule: Q04DX002 (ip), vehicle: Klucel (hydroxypropylcellulose) (HPC)",87 % of control
same,T/C,"dose: 200.0 mg/kg/injection, schedule: Q04DX002 (ip), vehicle: Klucel (hydroxypropylcellulose) (HPC)",91 % of control
same,T/C,"dose: 400.0 mg/kg/injection, schedule: Q04DX002 (ip), vehicle: Klucel (hydroxypropylcellulose) (HPC)",93 % of control
Cc1cc(N)n2c(nc3ccccc32)c1C#N,T/C,"dose: 15.0 mg/kg/injection, schedule: Q01DX005 (ip), vehicle: saline with Tween-80",102 % of control
same,T/C,"dose: 30.0 mg/kg/injection, schedule: Q01DX005 (ip), vehicle: saline with Tween-80",100 % of control
same,T/C,[2],93 % of control and 97 % of control
CC(C)C(NC(=O)C(C)N(C)C)C(=O)N1CCC2Oc3ccc(cc3)/C=C\NC(=O)C(Cc3ccccc3)NC(=O)C21 (stereo not drawn),T/C,[1],97 % of control
same,T/C,"dose: 200.0 mg/kg/injection, schedule: Q04DX003 (ip), vehicle: saline with Tween-80",95 % of control
same,T/C,"dose: 400.0 mg/kg/injection, schedule: Q04DX003 (ip), vehicle: saline with Tween-80",96 % of control
Cc1cc(-c2ccc(N=Nc3ccc4c(S(=O)(=O)O)cc(S(=O)(=O)O)c(N)c4c3O)c(C)c2)ccc1N=Nc1ccc2c(S(=O)(=O)O)cc(S(=O)(=O)O)c(N)c2c1O,T/C,[11],116 % of control
same,T/C,[10],107 % of control
COC(=O)C1(CC(=O)c2ccc(N3CCN(c4ccc(C(=O)CC5(C(=O)OC)NC(=S)NC(=O)C5C#N)cc4)CC3)cc2)NC(=S)NC(=O)C1C#N (stereo not drawn),T/C,"dose: 7.5 mg/kg/injection, schedule: Q01DX005 (ip), vehicle: Klucel (hydroxypropylcellulose) (HPC)",96 % of control
same,T/C,"dose: 15.0 mg/kg/injection, schedule: Q01DX005 (ip), vehicle: Klucel (hydroxypropylcellulose) (HPC)",99 % of control
same,T/C,"dose: 30.0 mg/kg/injection, schedule: Q01DX005 (ip), vehicle: Klucel (hydroxypropylcellulose) (HPC)",98 % of control and 92 % of control
COc1cc2c(cc1OC)CN1CCc3cc(OC)c(OC)cc3C1C2 (stereo not drawn),T/C,"dose: 50.0 mg/kg/injection, schedule: Q01DX005 (ip), vehicle: saline with Tween-80",99 % of control
same,T/C,"dose: 100.0 mg/kg/injection, schedule: Q01DX005 (ip), vehicle: saline with Tween-80",94 % of control
same,T/C,"dose: 200.0 mg/kg/injection, schedule: Q01DX005 (ip), vehicle: saline with Tween-80",91 % of control
O=C(O)c1ccc(N2N=C3C(=CC(=O)c4ccccc43)SCC2=O)cc1,T/C,"dose: 12.5 mg/kg/injection, schedule: Q01DX005 (ip), vehicle: saline + Tween-80 + alcohol",97 % of control
same,T/C,"dose: 25.0 mg/kg/injection, schedule: Q01DX005 (ip), vehicle: saline + Tween-80 + alcohol",112 % of control
CCN(CC)CCNC(=S)NNc1nc(C)ccc1[N+](=O)[O-],T/C,"dose: 12.5 mg/kg/injection, schedule: Q01DX009 (ip), vehicle: Klucel (hydroxypropylcellulose) (HPC)",99 % of control
same,T/C,[8],95 % of control
same,T/C,[9],87 % of control and 97 % of control
CN1C(=O)C2C(C1=O)[C@H]1c3ccccc3C=CN1[C@@H]2C(=O)c1ccccc1 (stereo partly drawn),T/C,[2],93 % of control
same,T/C,[3],90 % of control
same,T/C,[4],90 % of control
